Test results: ChEMBL document CHEMBL1201862, “PubChem BioAssay data set” (2004)
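Where inhibition never reached the appropriate level, the endpoint shown equals the highest concentration tested. Otherwise, values were interpolated linearly from a five-concentration, 48-hour dose response in 96-well plates. GI50 = concentration required for 50% inhibition of growth.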 Active and inactive are the calls of the source. No stated cut-off is given here; in the data, active = GI50 up to about 1.1 µM and inactive = higher.

Assays:
Assay in all cases: DTP human tumour cell line panel, 48 h
HOP-62 = tested on: HOP-62
SK-MEL-28 = tested on: SK-MEL-28
SNB-19 = tested on: SNB-19
HT-29 = tested on: HT-29
A498 = tested on: A498
CCRF-CEM = tested on: CCRF-CEM
KM-20L2 = tested on: KM-20L2
HL-60 = tested on: HL-60
OVCAR-4 = tested on: OVCAR-4
KM12 = tested on: KM12
UO-31 = tested on: UO-31
LXFL 529 = tested on: LXFL 529
DMS-114 = tested on: DMS-114
A549 = tested on: A549
HCT-116 = tested on: HCT-116
UACC-62 = tested on: UACC-62
OVCAR-5 = tested on: OVCAR-5
TK-10 = tested on: TK-10
UACC-257 = tested on: UACC-257
SK-OV-3 = tested on: SK-OV-3
DLD-1 = tested on: DLD-1
NCI-H23 = tested on: NCI-H23
SF-539 = tested on: SF-539
NCI-H460 = tested on: NCI-H460
SK-MEL-5 = tested on: SK-MEL-5
LOX IMVI = tested on: LOX IMVI
NCI-H522 = tested on: NCI-H522
SF-295 = tested on: SF-295
SNB-75 = tested on: SNB-75
OVCAR-8 = tested on: OVCAR-8
IGROV-1 = tested on: IGROV-1
K562 = tested on: K562
M14 = tested on: M14
EKVX = tested on: EKVX
OVCAR-3 = tested on: OVCAR-3
Malme-3M = tested on: Malme-3M
HCT-15 = tested on: HCT-15
SN12C = tested on: SN12C
CAKI-1 = tested on: CAKI-1
SW-620 = tested on: SW-620
RPMI-8226 = tested on: RPMI-8226
HCC 2998 = tested on: HCC 2998
NCI-H226 = tested on: NCI-H226
DMS-273 = tested on: DMS-273
SF-268 = tested on: SF-268
SK-MEL-2 = tested on: SK-MEL-2
COLO 205 = tested on: COLO 205
ACHN = tested on: ACHN
MOLT-4 = tested on: MOLT-4
786-0 = tested on: 786-0
U-251 = tested on: U-251
M19-MEL = tested on: M19-MEL
XF498 = tested on: XF498
HOP-92 = tested on: HOP-92
SNB-78 = tested on: SNB-78

**Q.** What does the source list for `CC(C)N(C(=O)C12C3C4C1C1C2C3C41C(=O)O)C(C)C` (stereo not given)?
**A.** GI50 (HOP-62): > 100 µM (inactive); GI50 (SK-MEL-28): > 100 µM (inactive); GI50 (SNB-19): > 100 µM (inactive); GI50 (HT-29): > 100 µM (inactive); GI50 (A498): > 100 µM (inactive); GI50 (CCRF-CEM): > 100 µM (inactive); GI50 (KM-20L2): > 100 µM (inactive); GI50 (HL-60): > 100 µM (inactive); GI50 (OVCAR-4): > 100 µM (inactive); GI50 (KM12): > 100 µM (inactive); GI50 (UO-31): > 100 µM (inactive); GI50 (LXFL 529): > 100 µM (inactive); GI50 (DMS-114): > 100 µM (inactive); GI50 (A549): > 100 µM (inactive); GI50 (HCT-116): > 100 µM (inactive); GI50 (UACC-62): > 100 µM (inactive); GI50 (OVCAR-5): > 100 µM (inactive); GI50 (TK-10): > 100 µM (inactive); GI50 (UACC-257): > 100 µM (inactive); GI50 (SK-OV-3): > 100 µM (inactive); GI50 (DLD-1): > 100 µM (inactive); GI50 (NCI-H23): > 100 µM (inactive); GI50 (SF-539): > 100 µM (inactive); GI50 (NCI-H460): > 100 µM (inactive); GI50 (SK-MEL-5): > 100 µM (inactive); GI50 (LOX IMVI): > 100 µM (inactive); GI50 (NCI-H522): > 100 µM (inactive); GI50 (SF-295): > 100 µM (inactive); GI50 (SNB-75): > 100 µM (inactive); GI50 (OVCAR-8): > 100 µM (inactive); GI50 (IGROV-1): > 100 µM (inactive); GI50 (K562): > 100 µM (inactive); GI50 (M14): > 100 µM (inactive); GI50 (EKVX): > 100 µM (inactive); GI50 (OVCAR-3): > 100 µM (inactive); GI50 (Malme-3M): > 100 µM (inactive); GI50 (HCT-15): > 100 µM; GI50 (SN12C): > 100 µM (inactive); GI50 (CAKI-1): > 100 µM (inactive); GI50 (SW-620): > 100 µM (inactive); GI50 (RPMI-8226): > 100 µM (inactive); GI50 (HCC 2998): > 100 µM (inactive); GI50 (NCI-H226): > 100 µM (inactive); GI50 (DMS-273): > 100 µM (inactive); GI50 (SF-268): > 100 µM (inactive); GI50 (SK-MEL-2): > 100 µM (inactive); GI50 (COLO 205): > 100 µM (inactive); GI50 (ACHN): > 100 µM (inactive); GI50 (MOLT-4): > 100 µM (inactive); GI50 (786-0): > 100 µM (inactive)

**Q.** Which GI50 (HOP-62) does the source give for `COc1cc(C2C(Cl)C(=O)N2NC(=O)c2ccc(N)cc2)cc(Br)c1O` (stereo not given) here?
**A.** Its GI50 is 15.1 µM (inactive).

**Q.** What about the GI50 (SK-MEL-28) of the same compound?
**A.** The GI50 was 16.2 µM (inactive).

**Q.** And the GI50 (SNB-19)?
**A.** The GI50 was 11.7 µM (inactive).

**Q.** What about the GI50 (HT-29) of the same compound?
**A.** The GI50 was 19.8 µM (inactive).

**Q.** What about the GI50 (A498) of the same compound?
**A.** The GI50 was 37.2 µM (inactive).

**Q.** And the GI50 (CCRF-CEM)?
**A.** The GI50 was 2.92 µM (inactive).

**Q.** What about the GI50 (KM-20L2) of the same compound?
**A.** The GI50 was 17.7 µM (inactive).

**Q.** And the GI50 (HL-60)?
**A.** Its GI50 is 8.75 µM (inactive).

**Q.** And the GI50 (OVCAR-4)?
**A.** The GI50 was 14.8 µM (inactive).

**Q.** And the GI50 (U-251)?
**A.** The GI50 was 3.31 µM (inactive).

**Q.** And the GI50 (KM12)?
**A.** Its GI50 is 16 µM (inactive).

**Q.** What about the GI50 (UO-31) of the same compound?
**A.** The GI50 was 17.8 µM (inactive).

**Q.** And the GI50 (LXFL 529)?
**A.** Its GI50 is 3.15 µM (inactive).

**Q.** And the GI50 (DMS-114)?
**A.** The GI50 was 6.35 µM (inactive).

**Q.** And the GI50 (A549)?
**A.** Its GI50 is 21.5 µM (inactive).

**Q.** What about the GI50 (HCT-116) of the same compound?
**A.** The GI50 was 10.4 µM (inactive).

**Q.** And the GI50 (UACC-62)?
**A.** The GI50 was 14 µM (inactive).

**Q.** What about the GI50 (OVCAR-5) of the same compound?
**A.** The GI50 was 19.4 µM (inactive).

**Q.** What about the GI50 (TK-10) of the same compound?
**A.** Its GI50 is 18.5 µM (inactive).

**Q.** And the GI50 (UACC-257)?
**A.** Its GI50 is 19 µM (inactive).

**Q.** And the GI50 (SK-OV-3)?
**A.** The GI50 was 28.5 µM (inactive).

**Q.** And the GI50 (DLD-1)?
**A.** Its GI50 is 19 µM (inactive).

**Q.** And the GI50 (NCI-H23)?
**A.** Its GI50 is 16.4 µM (inactive).

**Q.** And the GI50 (SF-539)?
**A.** Its GI50 is 19.5 µM (inactive).

**Q.** And the GI50 (NCI-H460)?
**A.** The GI50 was 16.6 µM (inactive).

**Q.** And the GI50 (SK-MEL-5)?
**A.** Its GI50 is 17.9 µM (inactive).

**Q.** What about the GI50 (LOX IMVI) of the same compound?
**A.** The GI50 was 2.75 µM (inactive).

**Q.** What about the GI50 (NCI-H522) of the same compound?
**A.** Its GI50 is 1.92 µM (inactive).

**Q.** What about the GI50 (SF-295) of the same compound?
**A.** Its GI50 is 14.6 µM (inactive).

**Q.** And the GI50 (SNB-75)?
**A.** Its GI50 is 17.2 µM (inactive).

**Q.** And the GI50 (OVCAR-8)?
**A.** Its GI50 is 28.4 µM (inactive).

**Q.** What about the GI50 (M19-MEL) of the same compound?
**A.** The GI50 was 17.9 µM (inactive).

**Q.** What about the GI50 (IGROV-1) of the same compound?
**A.** Its GI50 is 19.7 µM (inactive).

**Q.** What about the GI50 (K562) of the same compound?
**A.** The GI50 was 10.2 µM (inactive).

**Q.** What about the GI50 (M14) of the same compound?
**A.** Its GI50 is 15.5 µM (inactive).

**Q.** And the GI50 (EKVX)?
**A.** The GI50 was 13.2 µM (inactive).

**Q.** What about the GI50 (OVCAR-3) of the same compound?
**A.** The GI50 was 8.38 µM (inactive).

**Q.** What about the GI50 (Malme-3M) of the same compound?
**A.** The GI50 was 14.5 µM (inactive).

**Q.** And the GI50 (HCT-15)?
**A.** The GI50 was 15 µM.

**Q.** What about the GI50 (XF498) of the same compound?
**A.** Its GI50 is 17 µM (inactive).

**Q.** What about the GI50 (SN12C) of the same compound?
**A.** Its GI50 is 17 µM (inactive).

**Q.** What about the GI50 (HOP-92) of the same compound?
**A.** The GI50 was 23 µM (inactive).

**Q.** And the GI50 (CAKI-1)?
**A.** The GI50 was 16.8 µM (inactive).

**Q.** What about the GI50 (SW-620) of the same compound?
**A.** The GI50 was 15.2 µM (inactive).

**Q.** What about the GI50 (RPMI-8226) of the same compound?
**A.** The GI50 was 24.4 µM (inactive).

**Q.** What about the GI50 (HCC 2998) of the same compound?
**A.** The GI50 was 12 µM (inactive).

**Q.** And the GI50 (NCI-H226)?
**A.** The GI50 was 21.5 µM (inactive).

**Q.** What about the GI50 (DMS-273) of the same compound?
**A.** Its GI50 is 18 µM (inactive).

**Q.** What about the GI50 (SF-268) of the same compound?
**A.** The GI50 was 4.19 µM (inactive).

**Q.** And the GI50 (SK-MEL-2)?
**A.** Its GI50 is 17 µM (inactive).

**Q.** What about the GI50 (COLO 205) of the same compound?
**A.** Its GI50 is 18.7 µM (inactive).

**Q.** And the GI50 (SNB-78)?
**A.** The GI50 was 17.5 µM (inactive).

**Q.** And the GI50 (ACHN)?
**A.** Its GI50 is 19.2 µM (inactive).

**Q.** What about the GI50 (MOLT-4) of the same compound?
**A.** Its GI50 is 4.23 µM (inactive).

**Q.** What about the GI50 (786-0) of the same compound?
**A.** The GI50 was 13.3 µM (inactive).
